Each structure is given as a SMILES string. Entries after “also recorded” stand apart in the source; their conditions may differ.

For assay [1], the system named is in vitro complement activation (C3 and C4 conversion; MASP-2). Nature of the assay: in vitro complement activation (C3a and C4a by RIA) in blood or plasma of normal donors. It is filed as biochemical, human. Particulars: for MASP activity: inferred from C4a generation in EDTA blood (FIG. 2); for C4 conversion in blood, additive combined with EDTA: additive plus EDTA, 60 min at rt (FIG. 2); for C4 conversion (C4a generation) in whole blood / C3a generation in whole blood: no EDTA; for C4 conversion (C4a generation) in whole blood: over 60 min at rt (FIG. 2); for C3a generation in whole blood: 0.15 mM Benzamidine, 20 μM Trasylol or 0.1 mg/ml Futhan, 0 time vs 60 min at rt (FIG. 2). As for the experimental part:
(§1) Blood samples were either drawn into EDTA tubes (Venoject, Terumo Corp. Elkston, Md.) or Futhan/EDTA tubes (Venoject, Terumo Europe, Leuven, Belgium). The plasma was collected immediately by centrifugation at 2000 g for 15 min. at 4° C. unless otherwise indicated. The plasma samples were either processed immediately for analysis or snap frozen in liquid nitrogen and stored at -70° C. Frozen samples were thawed at 4° C. and processed as described in the text.
(§2) Equal volumes of the plasma sample and the precipitating reagent supplied in the Biotrak RIA kits were mixed by thorough agitation and incubated at rt. for 5 min. The mixture was then centrifuged at 2500 g for 15 min. at 4° C. The supernatant from each sample tube was collected for analysis in the RIA assay. A 50 μl aliquot of the original or diluted supernatant was mixed with 50 μl of the Biotrak assay buffer in a 12×75 mm polypropylene tube. The I^125 labeled C3a or C4a and the specific antibody solutions (50 μl each from the kit) were added and incubated at rt. for 30 min. (for antibody to C3a, C4a, C5a and des Arg derivatives thereof, see Hugli et al. (1975) J. Biol. Chem. 250:1472-1478; Hugli (1975) J. Biol. Chem. 250:8293; and Hugli et al. (1981) J. Biol. Chem. 256:2685-2692). A 50 μl aliquot of the second antibody (goat anti-rabbit) was added to the tube and the mixture incubated for an additional 30 min. at rt. Two ml of isotonic saline was added and the tube was centrifuged at 2000 g for 10 min. at 4° C. to pellet the antigen-antibody complexes. The supernatant in the tubes was decanted and the tubes were counted for 1 min. in a Cobra Auto-gamma Model 5002 (Packard Instrument Co., Meriden, Conn.) scintillation counter. Analysis of each sample was performed in duplicate. Data was analyzed using RiaSmart software supplied by Packard Instruments and installed in the Cobra Auto-gamma counter.
Blood from a normal donor was drawn into EDTA and 0 to 0.2 mg/ml Futhan was added over time indicated. Plasma was recovered within 30 min. of being drawn and a precipitating agent was added to the 0 time plasma sample (EDTA/p10) to prevent further C-activation. An EDTA/Futhan plasma sample (EDTA/p1) and an EDTA/Futhan blood sample (EDTA/b1) were stored for 1 hr. at 22° C. A separate set of EDTA/Futhan plasma samples were either stored at 4° C. for 24 hr (EDTA/p4) or frozen at -70° C. for 24 hr (EDTA/pF) and then thawed for analysis. C3a and C4a levels were determined using a radioimmunoassay procedure.
Whole blood from a normal donor was drawn into 0.15 mM benzamidine, 20 μM Trasylol or 0.1 mg/ml Futhan and processed either immediately (0 time) or after 60 min. at rt, and then analyzed for C3a and C4a.
In this experiment, whole EDTA (0.5 mg/ml) blood from a normal donor was incubated at 4° C. with and without 0.1 mg/ml Futhan added. The C3a and C4a levels were determined versus time over 23-hr.
Complement activation in EDTA plasma was compared with activation in EDTA/Futhan plasma at room temperature (22-24° C.) over a period of one hour (experiment 3A). […] All blood samples were drawn into EDTA, with and without 0.1 mg/ml Futhan present, and the plasma was collected (see Materials and Methods) and frozen at -70° C. These samples were thawed at 4° C. and analyzed after 0 and 60 min. at rt.

For assay [2] the test system is unchanged. Briefly: in vitro complement activation (C3a and C4a by RIA) in plasma of liver transplant patients. It is filed as biochemical, human. As for the experimental part: Blood from nineteen liver transplant patients was collected in 0.1 mg/ml Futhan and 0.5 mg/ml EDTA. The C3a and C4a levels were measured at 0 time and after 1 hr at room temperature. These samples were obtained during routine visits by the patients having no signs of acute rejection episodes.
Blood samples of 5-10 ml were drawn from normal donors, liver transplant and SLE (lupus) patients under an approved Human Subjects protocol #96-293 and all individuals were asked to sign an informed consent form agreeing to be voluntary donors. Normal donors were a random group of male and female individuals between the ages of 27-48. Liver transplant patients were selected from a group of patients being routinely followed at The Scripps Clinic Foundation by Dr. John Brems. None of these organ transplant patients were experiencing acute rejection episodes at the time that the blood was drawn.
as §1, §2
C3a and C4a generation was examined in EDTA plasma of liver transplant patients (average values, n=19) with and without […] Futhan present. These subjects were stable transplant patients not undergoing a clinically detectable rejection episode.

The test system of another assay is Hageman factor. Particulars: Hitomi et al. (1985); cited from earlier work.
Another assay deals with Factor Xa. Particulars: Hitomi et al. (1985); cited from earlier work.
Assay [3] relates to acute rejection episode in liver transplant patients. Briefly: treatment of rejection episodes in liver transplant patients. It is filed as in vivo, human. Conditions: two 1 g (I.V.) doses. An excerpt: Blood and urine samples were collected over a period of two years from 63 liver transplant patients during routine post-operative clinical visits. The patients' identities were concealed and no selection process or attempt was made to recruit patients for any other reason than that they had undergone orthotopic liver transplantation at The Scripps Clinic and Research Foundation. Immunosuppression was initiated with a regimen of cyclosporine A (CsA), azathioprine and steroids. Treatment for some of these patients was switched to FK506, but none was treated with OKT3. Patients were seen weekly in the outpatient transplant clinic after transplantation until their liver function tests stabilized. […] Measurement of the relevant clinical parameters was obtained during each visit. Liver biopsies were obtained whenever there was an abnormality in liver function tests.

Where [4] appears, read: normal donor, listed as benzamidine.
Where [5] appears, read: n=20, stored at 4° C. for 24 hours.
Setting [6] is: normal plasma, n = 20, processed immediately at rt, total data set.
Where [7] appears, read: normal plasma, processed immediately at rt, values outside ± 2σ eliminated.
[8] abbreviates: Table III samples, plasma processed immediately.

For the compound `N=C(N)c1ccccc1` [Benzamidine, benzamidine], in assay [1], the MASP activity result is recorded as “does not inhibit MASP activity”. In addition, in assay [1] (normal donor), the “C4 conversion in blood, additive combined with EDTA” value (“C4 conversion in blood” below) was “extensive conversion of C4 occurred”; the “C4 conversion (C4a generation) in whole blood” value is “relatively effective in preventing C4 conversion”; the “C3a generation in whole blood” value is “failed to prevent C3a generation”. Further, in assay [1] (setting [4]), the “C4 conversion in blood” value is listed as “high levels of C4a are generated” and the “C4 conversion (C4a generation) in whole blood” value is “no C4a generated in whole blood”.

Regarding `O=C(O)CN(CCN(CC(=O)O)CC(=O)O)CC(=O)O` [EDTA, ethylenediaminetetraacetic acid], the “activity of the Lectin Pathway in EDTA plasma” value in assay [1] (Table II, line III) is “IN VITRO”. The “C4a elevation over 60 min in normal plasma” value in assay [1] (n=11, average, rt) is reported as 3-4 fold. The “C4a level in normal plasma at 0 time” value in assay [1] (n=11, frozen at -70° C., thawed at 4° C., 0 min at rt (experiment 3A)) came out at 242 ± 95 ng/mL. Further, the “C4a level in normal plasma after 60 min” value in assay [1] (n=11, frozen at -70° C., thawed at 4° C., 60 min at rt (experiment 3A)) is 768 ± 392 ng/mL. For the same compound, in assay [1] (setting [5]), the “C3a values in normal plasma” value came to 0.60 ± 0.026 µg/mL and the “C4a levels in normal plasma” value stood at 0.32 ± 0.017 µg/mL. Besides, in assay [1] (normal donor, EDTA 0.5 mg/ml, after 23 hr), the “C4a level in whole blood at 4° C., end” value was “more than 1700 ng/ml”. The “C4a level in whole blood at 4° C., start” value in assay [1] (normal donor, EDTA 0.5 mg/ml, start of 23-hr period) came to 300 ng/mL. Moreover, the “C3a, mean ± standard deviation, data set I” value in assay [1] (normal plasma, n = 20, EDTA 1 mg/ml or Futhan 0.2 mg/ml and EDTA, processed immediately at rt, total data set) came to 599 ± 263 ng/mL. Also, in assay [1] (setting [6]), the “C3a, range of values, data set I” value fell in the range of 349 to 1344 ng/mL; the “C4a, mean ± standard deviation, data set I” value was determined as 316 ± 169 ng/mL; the “C4a, range of values, data set I” value was 130 to 774 ng/mL. Besides, in assay [1] (setting [7]), the “C3a, mean ± standard deviation, data set II” value turned out to be 484 ± 110 ng/mL; the “C3a, range of values, data set II” value was in the range of 349 to 722 ng/mL; the “C4a, mean ± standard deviation, data set II” value is 268 ± 95 ng/mL; the “C4a, range of values, data set II” value lay within 130 to 433 ng/mL. Moreover, in assay [1] (normal whole blood (FIG. 2)), the “C3 conversion when EDTA was added to the blood” value is listed as “virtually no C3 was converted” and the “C4 conversion when EDTA was added to the blood” value was “remarkable increase in C4 conversion”. For the same compound, the “C3a levels in whole blood at 4° C. versus time, relative to Futhan/EDTA blood” value in assay [1] (over 23 hr) is “only slightly higher”. In addition, the “C3a generation in normal blood at 4° C.” value in assay [1] (over a 27-hr period) is listed as “sufficient to prevent C3a generation”. For the same compound, in assay [2] (n=19, average), the “C4a in liver transplant patient plasma after 60 min at rt” value was 16.9 µg/mL and the “C4a in liver transplant patient plasma at 0 time” value amounted to 4.02 µg/mL. Moreover, the “C4a level in liver transplant patient plasma at 0 time” value in assay [2] (n=19, average (experiment 3B)) worked out at 4020 ± 6100 ng/mL.

As to `CS(=O)(=O)O.CS(=O)(=O)O.N=C(N)Nc1ccc(C(=O)Oc2ccc3cc(C(=N)N)ccc3c2)cc1` [Futhan, 6-amidino-2-naphthyl-p-guanidinobenzoate dimethanesulfonate], the “C4 conversion / C-activation versus time in normal EDTA plasma” value in assay [1] (0.01 mg/ml Futhan, dimethanesulfonate) is recorded as “measurable reduction in C4 conversion; also recorded: effective in protecting normal plasma from C-activation”. The “C4 cleavage in normal EDTA plasma” value in assay [1] (0.10 mg/ml Futhan, over a 24-hour period) is listed as “virtually eliminated C4 cleavage”. Moreover, the “C3a levels in EDTA samples” value in assay [1] (0.2 mg/ml Futhan, compared with lower Futhan levels (experiment 1)) is reported as “somewhat higher”. Also, the “activation of C4 in normal EDTA plasma” value in assay [1] (Futhan added (experiment 1)) is given as “abolished”. The “activity of all pathways with Futhan (Futhan/EDTA)” value in assay [1] (Table II, line IV) is “NO IN VITRO C-ACTIVATION”. Also, in assay [1] (setting [8]), the “reduction in C3a levels by addition of Futhan” value is reported as “no significant reduction” and the “reduction in C4a levels by addition of Futhan” value is given as “only marginal reduction”. For the same compound, the MASP activity entry in assay [1] is on record as “inhibits MASP”. Besides, the “C3a and C4a generation in EDTA plasma from normal donors” value in assay [1] (n=11, 0.1 mg/ml Futhan, rt, one hour (experiment 3A)) is on record as “effectively inhibited”. Besides, the “C4 conversion in blood” value in assay [1] (normal donor, dimethanesulfonate) was “fully effective; also recorded: fully blocked in vitro C-activation”. Besides, the “C3a generation in whole blood” value in assay [1] (normal donor) was “effective inhibitor”. The “generation of C3a or C4a in stored samples” value in assay [1] (stored 24 hr on ice or frozen and thawed) is listed as “minimal generation of either C3a or C4a”. For the same compound, the “stabilizing C3 and C4 in normal whole blood” value in assay [1] (with or without EDTA, up to one hour at room temperature (FIG. 2)) is “effective in stabilizing C3 and C4”. The “time-dependent C3a and C4a elevation in patient EDTA plasma” value in assay [2] (60 min at room temperature (experiment 3B)) was “effectively prevented”. Also, the “levels of C3a and C4a after 1 hr of incubation at rt” value in assay [2] (nineteen patients, 0.1 mg/ml Futhan and 0.5 mg/ml EDTA) is recorded as “unchanged in most samples”. For the same compound, the “C4 converting activity in EDTA plasma” value in assay [2] (transplant patients) is given as “fully inhibitable”. The “effective inhibitory level toward Hageman factor” value in the assay on Hageman factor is “sub-micromolar level”. Further, the “effective inhibitory level toward Factor Xa” value in the assay on Factor Xa was “sub-micromolar level”.

On to `C[C@H]1C[C@@H]2[C@H]([C@@H](O)C[C@@]3(C)[C@H]2CC[C@]3(O)C(=O)CO)[C@@]2(C)C=CC(=O)C=C12` [methylprednisolone], for which, in assay [3], the “course of the rejection episode after treatment” value is “resolved rapidly”.

Source of the values: patent publication US6297024A, “Methods for assessing complement activation” (Cell Activation, Inc., priority 1999, dated 2001).
